Laboratory results from EP0908457B1, “3-(1,2-benzisothiazol- and isoxazol-5-Y1)-2,4(1H,3H)-pyrimidinedione or thione and 3-(1,2-benzisothiazol- and isoxazol-5-y1)-4(3H)-pyrimidinone or thione herbicidal agents” (BASF AKTIENGESELLSCHAFT, priority 1997, dated 1999).

Assays:
[1] = test system: Monochoria vaginalis, Presl.; test: Preemergence weed control under flooded paddy conditions, MOOVA (Monochoria); type: in vivo; settings: preemergence, flooded paddy, rated three to four weeks after treatment
Sagittaria pygmaea, L. = test: Preemergence weed control under flooded paddy conditions, SAGPY (Arrowhead (Pygmaea)); type: in vivo; settings: preemergence, flooded paddy, rated three to four weeks after treatment
[2] = test system: Oryza sativa, (L.) Tebonnet; test: Rice tolerance to post-transplant applications under flooded paddy conditions (Example 187), ORYSAT (Rice, Tebonnet); settings: rated three to four weeks after treatment
[3] = test system: Cyperus serotinus, Rottb.; test: Preemergence weed control under flooded paddy conditions, CYPSE (Flatsedge); type: in vivo; settings: preemergence, rated three to four weeks after treatment
[4] = test system: Echinochloa oryzoides (Ard.) Fritsch.; test: Preemergence weed control under flooded paddy conditions, ECHORC (Watergrass (Calif.)); type: in vivo; settings: preemergence, flooded paddy, rated three to four weeks after treatment
Cyperus iria = test: Preemergence weed control under flooded paddy conditions, CYPIR (Rice Flatsedge); type: in vivo; settings: preemergence, flooded paddy, rated three to four weeks after treatment

## Cc1ccc(OCC(=O)NS(=O)(=O)c2sc(C)nc2C)c(-c2nsc3ccc(-n4c(=O)cc(C(F)(F)F)n(C)c4=O)cc23)c1 [Example 288, Acetamide, 2-{{2-{5-[3,6-dihydro-3-methyl-2,6-dioxo-4-(trifluoromethyl)-1(2H)-pyrimidinyl]-1,2-benzisothiazol-3-yl}-p-tolyl}oxy}-N-[(2,4-dimethylthiazol-5-yl)sulfonyl]-]
[1]; Rate 0.0320 kg/ha
  MOOVA herbicidal effect rating: 0.0
[1]; Rate 0.0620 kg/ha
  MOOVA herbicidal effect rating: 0.0
[1]; Rate 0.1250 kg/ha
  MOOVA herbicidal effect rating: 3.0
[1]; Rate 0.2500 kg/ha
  MOOVA herbicidal effect rating: 6.0
Sagittaria pygmaea, L.; Rate 0.0320 kg/ha
  SAGPY herbicidal effect rating: 0.0
Sagittaria pygmaea, L.; Rate 0.0620 kg/ha
  SAGPY herbicidal effect rating: 0.0
Sagittaria pygmaea, L.; Rate 0.1250 kg/ha
  SAGPY herbicidal effect rating: 0.0
Sagittaria pygmaea, L.; Rate 0.2500 kg/ha
  SAGPY herbicidal effect rating: 0.0
[2]; Rate 0.0320 kg/ha
  ORYSAT herbicidal effect rating: 0.0
[2]; Rate 0.0620 kg/ha
  ORYSAT herbicidal effect rating: 0.0
[2]; Rate 0.1250 kg/ha
  ORYSAT herbicidal effect rating: 1.0
[2]; Rate 0.2500 kg/ha
  ORYSAT herbicidal effect rating: 2.0
[3]; Rate 0.0320 kg/ha
  CYPSE herbicidal effect rating: 0.0
[3]; Rate 0.0620 kg/ha
  CYPSE herbicidal effect rating: 0.0
[3]; Rate 0.1250 kg/ha
  CYPSE herbicidal effect rating: 0.0
[3]; Rate 0.2500 kg/ha
  CYPSE herbicidal effect rating: 0.0
[4]; Rate 0.0320 kg/ha
  ECHORC herbicidal effect rating: 0.0
[4]; Rate 0.0620 kg/ha
  ECHORC herbicidal effect rating: 0.0
[4]; Rate 0.1250 kg/ha
  ECHORC herbicidal effect rating: 4.0
[4]; Rate 0.2500 kg/ha
  ECHORC herbicidal effect rating: 5.0
Cyperus iria; Rate 0.0320 kg/ha
  CYPIR herbicidal effect rating: 0.0
Cyperus iria; Rate 0.0620 kg/ha
  CYPIR herbicidal effect rating: 0.0
Cyperus iria; Rate 0.1250 kg/ha
  CYPIR herbicidal effect rating: 4.0
Cyperus iria; Rate 0.2500 kg/ha
  CYPIR herbicidal effect rating: 6.0

## CCOc1ccc2sc(S(=O)(=O)NC(=O)COc3ccc(C)cc3-c3nsc4ccc(-n5c(=O)cc(C(F)(F)F)n(C)c5=O)cc34)nc2c1 [Example 289, Acetamide, 2-{{2-{5-[3,6-dihydro-3-methyl-2,6-dioxo-4-(trifluoromethyl)-1(2H)-pyrimidinyl]-1,2-benzisothiazol-3-yl}-p-tolyl}oxy}-N-[(5-ethoxybenzothiazol-2-yl)sulfonyl]-]
[1]; Rate 0.0320 kg/ha
  MOOVA herbicidal effect rating: 0.0
[1]; Rate 0.0620 kg/ha
  MOOVA herbicidal effect rating: 0.0
[1]; Rate 0.1250 kg/ha
  MOOVA herbicidal effect rating: 9.0
[1]; Rate 0.2500 kg/ha
  MOOVA herbicidal effect rating: 9.0
Sagittaria pygmaea, L.; Rate 0.0320 kg/ha
  SAGPY herbicidal effect rating: 0.0
Sagittaria pygmaea, L.; Rate 0.0620 kg/ha
  SAGPY herbicidal effect rating: 0.0
Sagittaria pygmaea, L.; Rate 0.1250 kg/ha
  SAGPY herbicidal effect rating: 0.0
Sagittaria pygmaea, L.; Rate 0.2500 kg/ha
  SAGPY herbicidal effect rating: 0.0
[2]; Rate 0.0320 kg/ha
  ORYSAT herbicidal effect rating: 0.0
[2]; Rate 0.0620 kg/ha
  ORYSAT herbicidal effect rating: 0.0
[2]; Rate 0.1250 kg/ha
  ORYSAT herbicidal effect rating: 0.0
[2]; Rate 0.2500 kg/ha
  ORYSAT herbicidal effect rating: 0.0
[3]; Rate 0.0320 kg/ha
  CYPSE herbicidal effect rating: 0.0
[3]; Rate 0.0620 kg/ha
  CYPSE herbicidal effect rating: 0.0
[3]; Rate 0.1250 kg/ha
  CYPSE herbicidal effect rating: 0.0
[3]; Rate 0.2500 kg/ha
  CYPSE herbicidal effect rating: 0.0
[4]; Rate 0.0320 kg/ha
  ECHORC herbicidal effect rating: 0.0
[4]; Rate 0.0620 kg/ha
  ECHORC herbicidal effect rating: 2.0
[4]; Rate 0.1250 kg/ha
  ECHORC herbicidal effect rating: 3.0
[4]; Rate 0.2500 kg/ha
  ECHORC herbicidal effect rating: 4.0
Cyperus iria; Rate 0.0320 kg/ha
  CYPIR herbicidal effect rating: 0.0
Cyperus iria; Rate 0.0620 kg/ha
  CYPIR herbicidal effect rating: 0.0
Cyperus iria; Rate 0.1250 kg/ha
  CYPIR herbicidal effect rating: 9.0
Cyperus iria; Rate 0.2500 kg/ha
  CYPIR herbicidal effect rating: 9.0

## Cc1ccc(OCC(=O)NS(=O)(=O)c2sc3ccc(Cl)cc3c2C)c(-c2nsc3ccc(-n4c(=O)cc(C(F)(F)F)n(C)c4=O)cc23)c1 [Example 290, Acetamide, N-[(5-chloro-3-methylbenzo[b]thien-2-yl)sulfonyl]-2-{{2-{5-[3,6-dihydro-3-methyl-2,6-dioxo-4-(trifluoromethyl)-1(2H)-pyrimidinyl]-1,2-benzisothiazol-3-yl}-p-tolyl}oxy}-]
[1]; Rate 0.0320 kg/ha
  MOOVA herbicidal effect rating: 0.0
[1]; Rate 0.0620 kg/ha
  MOOVA herbicidal effect rating: 7.0
[1]; Rate 0.1250 kg/ha
  MOOVA herbicidal effect rating: 7.0
[1]; Rate 0.2500 kg/ha
  MOOVA herbicidal effect rating: 7.0
Sagittaria pygmaea, L.; Rate 0.0320 kg/ha
  SAGPY herbicidal effect rating: 0.0
Sagittaria pygmaea, L.; Rate 0.0620 kg/ha
  SAGPY herbicidal effect rating: 0.0
Sagittaria pygmaea, L.; Rate 0.1250 kg/ha
  SAGPY herbicidal effect rating: 0.0
Sagittaria pygmaea, L.; Rate 0.2500 kg/ha
  SAGPY herbicidal effect rating: 0.0
[2]; Rate 0.0320 kg/ha
  ORYSAT herbicidal effect rating: 0.0
[2]; Rate 0.0620 kg/ha
  ORYSAT herbicidal effect rating: 0.0
[2]; Rate 0.1250 kg/ha
  ORYSAT herbicidal effect rating: 0.0
[2]; Rate 0.2500 kg/ha
  ORYSAT herbicidal effect rating: 0.0
[3]; Rate 0.0320 kg/ha
  CYPSE herbicidal effect rating: 0.0
[3]; Rate 0.0620 kg/ha
  CYPSE herbicidal effect rating: 0.0
[3]; Rate 0.1250 kg/ha
  CYPSE herbicidal effect rating: 0.0
[3]; Rate 0.2500 kg/ha
  CYPSE herbicidal effect rating: 0.0
[4]; Rate 0.0320 kg/ha
  ECHORC herbicidal effect rating: 0.0
[4]; Rate 0.0620 kg/ha
  ECHORC herbicidal effect rating: 0.0
[4]; Rate 0.1250 kg/ha
  ECHORC herbicidal effect rating: 3.0
[4]; Rate 0.2500 kg/ha
  ECHORC herbicidal effect rating: 7.0
Cyperus iria; Rate 0.0320 kg/ha
  CYPIR herbicidal effect rating: 6.0
Cyperus iria; Rate 0.0620 kg/ha
  CYPIR herbicidal effect rating: 6.0
Cyperus iria; Rate 0.1250 kg/ha
  CYPIR herbicidal effect rating: 6.0
Cyperus iria; Rate 0.2500 kg/ha
  CYPIR herbicidal effect rating: 6.0
